In paper PMC11505038, “Kalata B1 Enhances Temozolomide Toxicity to Glioblastoma Cells” (Biomedicines, 2024):
Like-named read-outs stand apart in the source and are kept apart here.

Assays:
[1] = test system: SH-SY5Y human neuroblastoma cells; settings: MTT, 72 h, previously published data; cited from earlier work
Protocol: (§1) Table 4 Toxicity and IC50 values of five cyclotides and TMZ in SH-SY5Y, U-87 MG, and T-98G cell cultures. | column: IC50 (μM) ± S.D. || Figure 5 Effect of natural and synthetic Kalata B1 on cell viability in SH-SY5Y, U-87MG, and T-98G cells cultures. The IC50 values for the cyclotides were determined using MTT assay after incubation with cells at increasing concentrations (0.1, 1, 5, and 10 μM) as compared to the control. Panel (A): SH-SY5Y and U-87 MG cells, and panel (B) T-98G and U-87 MG cells. Cultures (6000 cells per well in a 96-well plate), were treated with the cyclotide indicated, for 72 h, then MTT measured. Cell viability was calculated as a percentage of control cultures. IC50 values were calculated using the Best ... || To evaluate the cytotoxicity of plant-derived Kalata B1 and synthetic Kalata B1, MTT assays were performed with T-98G, U-87 MG, and SH-SY5Y cell cultures.

[2] = test system: TMZ-resistant cell line T-98G; settings: ref Lee 31, read-out: Range of TMZ IC50 values summarized in the literature; cited from earlier work
Text: Symptoms of GBM include seizures, headaches, nausea, and memory loss, and the side effects of TMZ can not only intensify headaches and nausea but also include diarrhea, constipation, loss of appetite, and sores in the mouth and throat. TMZ is an oral DNA alkylating agent that induces cell cycle arrest at G2/M, and its cytotoxicity is mediated by the addition of methyl groups at N^7 and O^6 sites on guanines and the […] in genomic DNA. A thymine instead of a cytosine is inserted during the alkylation of the O^6 site on guanine, which can cause cell death during DNA replication. ...

[3] = test system: U-87 MG human glioblastoma cells; experiment: cells
Protocol: (§2) SH-SY5Y human neuroblastoma cells (population doubling (PD) 20−24), T-98G, and U-87 MG human glioblastoma cells were removed from cryogenic storage, thawed rapidly in a water bath (37 °C) and reconstituted in 75 cm^2 flasks. For SH-SY5Y, the following media were used: Dulbecco’s modified Eagle’s medium/Nutrient F12 Ham (Sigma-Aldrich, Cat. No. D8437) containing 10% heat-inactivated fetal bovine serum, 4 mM L-glutamine, 100 U/mL penicillin, and 100 μg/mL streptomycin. For U-87 MG and T-98G Eagle’s minimal essential medium (ATCC: The Global Bioresource Center, Cat. No. ATCC 30-2003), containing 10% heat-inactivated fetal bovine serum, 4 mM L-glutamine, 100 U/mL penicillin, and 100 μg/mL streptomycin were used.
(§3) Cells were incubated at 37 °C in a humidified atmosphere of 5% CO2 and 95% air until recovered and ready for passaging (approximately 4 days). At between 80% and 90% confluence, the cells were trypsinized with warm (37 °C) sterile 0.5% Trypsin-EDTA (Thermo Fisher, Cat. No. 15400054) and passaged into 175 cm^2 flasks, where they were left to multiply until they reached 80−90% confluence. To plate cells: cultures were trypsinized, resuspended in 20 mL sterile PBS, counted using a cell counter (Olympus cell counter model R1), and plated in 96-well plates at an optimal density of 6000 cells/well in the designated culture media. The cells were left to adhere overnight before treatment the following day, when the culture medium was removed and replaced with the treatment medium. All incubations were conducted in triplicate wells and repeated at least three times (n = 3).
(§4) To calculate TMZ IC50 values in each cell line, TMZ was dissolved in DMSO at a stock concentration of 103 mM, which was then diluted into culture medium on the day of use, with the DMSO final concentration always less than 0.1%. The following concentrations of TMZ were used in the experiments: 0.5, 5, 50, 500, 2500, 5000 μM. The media were sterilized for each treatment media with a 0.22 μm filter before they were added to cell cultures. To determine the IC50 values for each cyclotide in each cell type, cyclotides were dissolved into 10% DMSO and then dilutions used to screen cyclotides with a final DMSO concentration of less than 0.1% The following concentrations of cyclotides were used: 0.1, 1, 5, 10 μM. For co-exposure experiments, a simultaneous exposure of cyclotide and TMZ at each respective dose was added to cell cultures (100 μL final volume per well).
(§5) In accordance with the methods developed by Mosmann and colleagues, the MTT assay was conducted using the Roche cell proliferation kit (Cat. No. 11465007001). Briefly, cells that are active can cleave MTT. The MTT is originally a yellow tetrazolium salt that undergoes a colorimetric change to purple formazan crystals, and the change in absorbance can be measured as an indicator of cell viability/proliferation. For these experiments, cells were plated into 96-well flat-bottom plates, as described in the cell culture above. […] To align with our previous work, experiments were conducted with a 72 h time frame for cytotoxicity evaluation.
(§6) After a 72 h incubation period, plates were removed from the incubator and 10 µL of MTT was added to each well. The plates were returned to the incubator for an additional 4 h, after which 100 µL of a solubilization solution was added to each well. The plates were returned to incubation overnight, and the next day absorbances were read at 570 nm on a Molecular Devices FlexStation 3 using SoftMax Pro Microplate Data Acquisition and Analysis Software (version 7.0.2).

[4] = test system: T-98G human glioblastoma cells; experiment: cells; settings: Homo sapiens, T98G, 72 h, read-out: IC50 (μM) ± S.D.
Protocol: as §2, §3, §4, §5, §6

[5] = test system: U-87 MG cells; experiment: Phase contrast microscopy of U-87 MG cultures; type: cell-based, human; settings: 72 h, 150 µM TMZ alone or 0.5 µM synthetic Kalata B1 alone, 20× phase contrast
[6] = test system: U-87 MG human glioblastoma cells; settings: MTT, 72 h, previously published data; cited from earlier work
Protocol: as §1, with “S.D. || The IC50 values of natural and synthetic cyclotides, as well as TMZ, are provided in Table 4. […] The IC50 values were calculated using nonlinear regression analysis with dose-dependent inhibition and an inhibitor vs. no ...” for “S.D.”, “(+ 4 further places)” for “To evaluate the cytotoxicity of plant-derived Kalata B1 and synthetic Kalata B1, MTT assays were performed with T-98G, U-87 MG, and SH-SY5Y cell cultures.”

Cn1nnc2c(C(N)=O)ncn2c1=O [TMZ, temozolomide]
IC50 [1]: 393 ± 4.5 µM
IC50 [2]: 250 to 1580 µM
Cell death in MTT cell viability assay [3]: less than 15%
IC50 ([3]; Homo sapiens, U-87 MG, 72 h, read-out: IC50 (μM) ± S.D.): 1617 ± 5.56 µM
IC50 [4]: 1160 ± 5.31 µM
Morphological changes versus control cultures, single agent [5]: little differences
IC50 [6]: 2898 ± 6 µM
